“And” between values parts separate entries of the source, which are not always exact repeats. Identical values can stand only once.
Columns and labels:
[1] = system: IL-1β; experiment: Luminex assay of patient plasma, IL-1β; type: in vivo, human
Procedure: (§1) The plasma sample collected from the blood of patients listed in (Table 1 below) was thawed and centrifuged at 10,000 rpm at 4° C. for 2 minutes, and the supernatant was used for analysis. The supernatant was serially diluted, and 50 μl of the samples were dispensed to each well in a 96-well plate. 5O μl of diluted Microparticle Cocktail (R&D systems) shown in Table 2 was added to each well containing samples and incubated for 2 hours at room temperature on a shaker at 800 rpm. The sample mixture was removed and washed with 100 μl of washing buffer three times. Then, 50 μL of diluted Biotin-Antibody Cocktail (R&D systems) to each well and incubate for 1 hour at RT on the shaker at 800 rpm, followed by three times of washing with wash buffer. 50 μL of diluted […] at RT on the shaker at 800 rpm. After washing with wash buffer three times, 100 μl of wash buffer was added to each well, and the sample's fluorescence intensity was obtained using a Luminex analyzer (Luminex) within 90 mins.
(§2) Standard, control and the sample was quantitatively analyzed using the average value of the results obtained by duplicate test.
(§3) The absolute value of each sample's mean fluorescence intensity (MFI) was obtained by comparing it to the standard curve. The value derived as an under-standard was marked as 0 because it is a trace value outside the detection range of the assay kit.
(§4) The standard curve was obtained by the best fit method in ‘MasterPlex QT 2010 (MiraiBio, Hitachi, CA, USA)’ to calculate the response measured value (MFI) for each standard concentration, which has the highest R square value among each calculation method (Highest value =1.0). The sample's resultant concentration value was calculated based on this standard curve.

[2] = system: severe oral mucositis (SOM); experiment: Phase 2 clinical study of EC-18 in chemoradiation-induced oral mucositis (efficacy); type: in vivo, human
Source text: Human patients of the following characteristics were enrolled: • 18 years or older • Diagnosis of squamous cell carcinoma of the mouth, oropharynx, hypopharynx or nasopharynx • Planned to receive IMRT with daily fractions of 2.0 Gy to 2.2 Gy to a cumulative dose of at least 60 Gy and a maximum of 72 Gy • Radiation fields to include at least two mucositis sites at risk (buccal mucosa, floor of mouth, ventral and lateral tongue, soft palate) in which both sites receive a minimum cumulative dose of 55 Gy • Planned to receive concomitant single agent chemotherapy with cisplatin
EC-18 was administered in varying patients of the treatment group up to 2000 mg/day. Recommended therapy was 500 mg EC-18 capsule administered 4 times throughout the day (e.g., 2 capsules of 500 mg EC-18 administered within 30 mins after taking breakfast and dinner) for a total daily dosage of 2000 mg EC-18 per day. Treatment protocol lasted 7 weeks while radiation therapy and cisplatin therapy continued during the same time.
(§5) For the study, 25 large institutions and hospitals experienced with head and neck cancer treatment were selected • Stage 1: To Evaluate safety and MTD that can be used for Stage 2 iDSMB: Data and Safety Monitoring Board reviewed safety data every 2 weeks and approved for Stage 2 using MTD 2000 mg. • Stage 2: To Evaluate safety and efficacy 7 weeks Active and 4-6 weeks of STFU until OM is resolved. • 2.0-2.2 Gy daily fraction (5 days a week for 7 weeks) and I week (40 mg/m2) or every 3 weeks (100 mg/m2) cisplatin. • Minimum cumulative radiation dose of 55 Gy.
For Efficacy, measured duration of severe oral mucositis (SOM), Incidence of SOM during active treatment.
In Stage 1, we included Stage 1 placebo and 2000 mg patients to Stage 2 for efficacy analysis: • Placebo group: Stage 1 n=2, Stage 2 n=18: Total: 20 • EC-18 2000 mg group: Stage 1 n=5, Stage 2 n=17: Total: 22

[3] = Phase 2 clinical study of EC-18, safety (SAE/AE, MTD); type: in vivo
Procedure: as §5
Stage 1 had 17 total SAEs from a total of 24 patients when Stage 2 had 31 total SAEs from a total of 81 patients. 020-018 patient was determined by investigator to be not related to study drug. Many SAEs occurred due to nausea and vomiting which is a normal symptom for chemo treatment

[4] = system: TGFβ; experiment: Luminex assay of patient plasma, TGFβ; type: in vivo, human
Procedure: as §1, §2, §3, §4

[5] = regardless of the incidence of SOM
[6] = PP population, EC-18 2,000 mg vs placebo

Question: Which “IL-1β concentration at 4th and 7th weeks” value ([1]; 4th and 7th weeks of treatment) does the source give for `CCCCC/C=C\C/C=C\CCCCCCCC(=O)OC(COC(C)=O)COC(=O)CCCCCCCCCCCCCCC` (centres unmarked) [EC-18] here?
Answer: The value was “under the detection limit”.

Question: And the “IL-1β concentration vs placebo, HPV+/HPV−” value ([1]; regardless of HPV infection state)?
Answer: The value was “significantly lower compared with the placebo group”.

Question: And the “IL-1β concentration vs placebo, with or without SOM” value [1, 5]?
Answer: The value was “significantly lower compared with the placebo group”.

Question: What about the “IL-1β concentration vs placebo, weekly or tri-weekly cisplatin” value ([1]; regardless of the weekly or tri-weekly cisplatin treatment) of the same compound?
Answer: The value was “significantly lower than in the placebo group”.

Question: What about the “IL-1β concentration vs placebo, total” value ([1]; throughout seven weeks treatment period) of the same compound?
Answer: Its value is “significantly lower than the placebo group”.

Question: And the “reduction of incidence of SOM compared to placebo population” value ([2]; EC-18 group vs placebo)?
Answer: The value was “over 35%”.

Question: What about the “therapeutic benefit over the control group” value ([2]; EC-18 up to 2000 mg/day, 7 weeks, with radiation and cisplatin) of the same compound?
Answer: Its value is “clear therapeutics benefit over the control group”.

Question: What about the “delay of SOM onset compared with placebo” value [2, 6] of the same compound?
Answer: Its value is 8 days.

Question: And the “delay of first opioid use vs placebo, mean” value [2, 6]?
Answer: The value was 6.3 days.

Question: What about the “delay of first opioid use vs placebo, median” value [2, 6] of the same compound?
Answer: The value was 11.5 days.

Question: And the “time to SOM onset” value ([2]; PP population, EC-18 2,000 mg, placebo 43 days)?
Answer: The value was 51 days.

Question: What about the “incidence of SOM through active treatment period” value ([2]; PP population, baseline through 7-week active treatment period, EC-18 2,000 mg, placebo 65.0%) of the same compound?
Answer: The value was 36.4%.

Question: What about the “incidence of SOM (number of subjects)” value ([2]; PP population, baseline through active treatment period and STFU, EC-18 2000 mg (n=22), placebo 14) of the same compound?
Answer: The value was 10.

Question: And the “incidence of SOM” value ([2]; PP population, baseline through active treatment period and STFU, EC-18 2000 mg, placebo 70.0%)?
Answer: The value was 45.5% and 45%.

Question: And the “time to first use of opioid analgesics, median” value ([2]; PP population, evaluable subjects n=8, EC-18 2000 mg, placebo 25.5 days)?
Answer: The value was 37 days.

Question: And the “time to first use of opioid analgesics, mean” value ([2]; PP population, evaluable subjects n=8, EC-18 2000 mg, placebo 26 days)?
Answer: Its value is 32.3 days.

Question: What about the “SOM incidence at each week interval” value ([2]; PP population, weekly intervals, vs placebo) of the same compound?
Answer: Its value is “less than placebo group”.

Question: What about the “incidence of SOM, HPV+” value ([2]; subjects with HPV+, EC-18 2000 mg, placebo 66.7%) of the same compound?
Answer: Its value is 35.3%.

Question: What about the “incidence of SOM, HPV−” value ([2]; subjects with HPV−, EC-18 2000 mg, placebo 71.4%) of the same compound?
Answer: Its value is 75%.

Question: What about the “incidence of SOM, tri-weekly cisplatin” value ([2]; subjects with tri-weekly cisplatin, EC-18 2000 mg, placebo 70.0%) of the same compound?
Answer: The value was 66.7%.

Question: What about the “incidence of SOM, weekly cisplatin” value ([2]; subjects with weekly cisplatin, EC-18 2000 mg, placebo 70.0%) of the same compound?
Answer: Its value is 37.5%.

Question: And the MTD ([3]; Stage 1, daily dose, approved for Stage 2)?
Answer: Its MTD is 2000 mg.

Question: What about the “serious adverse events (SAE) across study arms” value ([3]; human, in vivo) of the same compound?
Answer: The value was “no appreciable differences in SAEs were observed across the study arms”.

Question: What about the “attribution of reported AEs” value ([3]; human, in vivo, 7 weeks) of the same compound?
Answer: The value was “all the reported AEs were attributable to chemoradiation treatment and not to EC-18”.

Question: And the “TGF-β concentration vs placebo, total” value ([4]; 7th week of chemoradiation therapy)?
Answer: The value was “significantly higher than the placebo group”.

Question: And the “TGF-β concentration vs placebo, HPV-positive” value ([4]; HPV-positive population)?
Answer: Its value is “significantly higher compared with placebo”.

Question: And the “TGF-β concentration vs placebo, with or without SOM” value [4, 5]?
Answer: Its value is “higher compared with the placebo group”.

Question: What about the “TGFβ concentration vs placebo, tri-weekly cisplatin” value ([4]; sub-population with tri-weekly cisplatin) of the same compound?
Answer: The value was “not significantly different”.

Question: What about the “TGF-β concentration vs placebo, cisplatin once a week” value ([4]; sub-population with weekly cisplatin) of the same compound?
Answer: The value was “significantly higher compared with placebo”.

Source: patent US20240415798A1, “COMPOSITIONS AND METHODS FOR TREATING MUCOSITIS” (Enzychem Lifesciences Corporation, priority 2021, published 2024)
